Measured values: patent publication US6683079B2, “3-(amino-or aminoalkyl) pyridinone derivatives and their use for the treatment of HIV related diseases” (Centre National de la Recherche Scientifique, priority 1998, dated 2004)

Columns and labels:
HIV-1 strain IIIB = assay: Retrovirucidal effect on HIV-1 strain IIIB (Table 3); format: cell-based; conditions: pIC50=-log IC50, IC50 in M
Experimental: (§1) HIV-1 viral suspensions were obtained by coculture of MT4 cells and H9 cells chronically infected by HIV-ILai isolate. 200 μl of a cell supernatant containing viral particles (HIV-ILai: 100 TCID50) were incubated at room temperature with various concentrations of different inhibitors. After 3 hours, virions were washed through 0.02 μm anopore membrane in 1.5 mL Vectaspin tube (Whatman) for 10 minutes at 5 000 g. Each of the three subsequent washes was performed in the same conditions after the viral concentrate was refilled with 500 μL of RPMI medium. Then, the viral concentrate was readjusted to the initial volume with RPMI plus 10% foetal calf serum (FCS). The residual infectivity was assayed on P4 cells as described by CHARNEAU et al. (1994, J. Mol. Biol., 241, 651-662). Briefly, P4 cells were plated using 100 μL of DMEM medium plus 10% FCS in 96 plate multi-wells at 20×10^5 cells per mL. After overnight incubation at 37° C., the supernatant was discarded and the viral preparation (200 μL) was added. One day later the wells were washed three times in PBS. Each well was refilled with 200 μL of a reaction buffer containing 50 mM Tris-HCl pH 8.5, 100 mM 2-mercaptoethanol, 0.05% Triton X-100 and 5 mM 4-methylumbelliferyl β-D-galactopyranoside (MUG). After 3 hours at 37° C., the level of the reaction was measured in a fluorescence microplate reader.
(§2) The retrovirucidal effect of each pyridinone derivative listed in table 3 has been assayed according to the teachings of example 2, excepted that the anti-viral effect has been tested on the two following HIV-1 strains:
a) HIV-1 strain IIIB (see example 2);

HIV-1 strain 103 N = assay: Retrovirucidal effect on HIV-1 strain 103 N (Table 3); format: cell-based; conditions: HIV-1 strain 103N (RT Lys-103 to Asn mutant); pIC50=-log IC50, IC50 in M
Experimental: as §1, §2
b) HIV-1 strain 103 N which is a mutant strain bearing a point mutation in the reverse transcriptase gene leading to an enzyme wherein the initial Lys-103 residue is replaced for a Asn residue.
The HIV-1 103 N strain has also been described by SAHLBERG et al.,(1998, Antiviral Res., 37 (3): ASS) and BALZARiNI et al. (1996, Antimicrobial Agents and Chemotherapy, 40 (6): 1454-1466).

SMILES | HIV1 pIC50 strain IIIB (HIV-1 strain IIIB) | HIV1 pIC50 strain 103N (HIV-1 strain 103 N)
CCc1[nH]c(=O)c(N(C)C)c(Cc2cc(C)cc(C)c2)c1C [Compound 28] | 8.032 | 6.943
CCc1c(C)[nH]c(=O)c(NCc2ccccc2)c1Cc1cc(C)cc(C)c1 [Compound 29] | 6.555 | 5.496
CCc1c(C)[nH]c(=O)c(N2CCCCC2)c1Cc1cc(C)cc(C)c1 [Compound 30] | 6.214 | 4.224
CCc1c(C)[nH]c(=O)c(N)c1Cc1ccc(C)cc1C [Compound 31] | <4 | <4
Cc1cc(C)cc(Cc2c(C)c(C)[nH]c(=O)c2N)c1 [Compound 32] | 6.104 | <5
Cc1cc(C)cc(Cc2c(C)c(C)[nH]c(=O)c2N(C)C)c1 [Compound 33] | 8.42 | 6.286
CCc1c(C)[nH]c(=O)c(N(C)C)c1Cc1ccc(C)cc1C [Compound 34] | 5.019 | <4
CCc1c(C)[nH]c(=O)c(N(C)C)c1C(=O)c1cc(C)cc(C)c1 [Compound 35] | 8.585 | 7.987
CCc1c(C)[nH]c(=O)c(N2CCOCC2)c1Cc1cc(C)cc(C)c1 [Compound 36] | 6.763 | <4
CCc1c(C)[nH]c(=O)c(N(C)C)c1Cc1cc(C)ccc1C [Compound 37] | 6.796 | 5.729
CCc1c(C)[nH]c(=O)c(N(C)C)c1Cc1cc(F)cc(F)c1 [Compound 38] | 8.155 | 7.402
CCc1c(C)[nH]c(=O)c(N)c1Cc1cccc(Cl)c1 [Compound 39] | 5 | 4.751
CCc1c(C)[nH]c(=O)c(N(C)C)c1Cc1cccc(Cl)c1 [Compound 40] | 8.585 | 7.412
CCc1c(C)[nH]c(=O)c(N)c1Cc1cccc(F)c1 [Compound 41] | 5.131 | 4.473
CCc1c(C)[nH]c(=O)c(N(C)C)c1Cc1cccc(F)c1 [Compound 42] | 8.569 | 7.18
CCc1c(C)[nH]c(=O)c(N(C)C)c1Cc1cn(C)c2ccccc12 [Compound 43] | 7.377 | 6.422
CCc1c(C)[nH]c(=O)c(N(C)C)c1Cc1cccnc1 [Compound 44] | 7.889 | 6.355
CCc1c(Cc2cc(C)cc(C)c2)c(N(C)C)c(=O)n(CC)c1C [Compound 45] | 5.519 | 4.095
CCc1c(C)[nH]c(=O)c(NC)c1Cc1cc(C)cc(C)c1 [Compound 46] | 8.119 | 7.034

SMILES | HIV1 pIC50 strain IIIB (HIV-1 strain IIIB) | HIV1 pIC50 strain 103N (HIV-1 strain 103 N)
CCCN(C)c1c(Cc2cc(C)cc(C)c2)c(CC)c(C)[nH]c1=O [Compound 47] | 7.767 | 6.968
CCc1c(C)[nH]c(=O)c(N(C)C)c1C(O)c1cc(C)cc(C)c1 (stereo not shown) [Compound 48] | 8 | 6.711
CCc1c(C)[nH]c(=O)c(N)c1Cc1ccc(-c2ccccc2)cc1 [Compound 49] | <4 | <5
CCc1c(C)[nH]c(=O)c(N)c1Cc1cccc(C(F)(F)F)c1 [Compound 50] | <5 | <5
CCc1c(C)[nH]c(=O)c(N(C)C)c1Cc1ccc(-c2ccccc2)cc1 [Compound 51] | 5.384 | <5
CCc1c(C)[nH]c(=O)c(N)c1Cc1ccc(C(F)(F)F)cc1 [Compound 52] | <4 | <5
CCc1c(C)[nH]c(=O)c(N(C)C)c1Cc1ccc(C(F)(F)F)cc1 [Compound 53] | 5.828 | <5
CCc1c(C)[nH]c(=O)c(N)c1Cc1ccc(Cl)cc1 [Compound 54] | <4 | <5
CCc1c(C)[nH]c(=O)c(N(C)CC)c1Cc1cc(C)cc(C)c1 [Compound 56] | 8.194 | 7.11
CCc1c(C)[nH]c(=O)c(N(C)C)c1Cc1cccc(C(F)(F)F)c1 [Compound 57] | 8.086 | 6.414
CCc1c(C)[nH]c(=O)c(N)c1Cc1c(C)cc(C)cc1C [Compound 58] | <4 | <5
CCc1c(C)[nH]c(=O)c(N(C)C)c1Cc1c(C)cc(C)cc1C [Compound 59] | 5.029 | <5
CCc1c(C)[nH]c(=O)c(N(C)C)c1Cc1cccc(Br)c1 [Compound 60] | 8.444 | 7.001
CCc1c(C)[nH]c(=O)c(N(C)CCCSC)c1Cc1cc(C)cc(C)c1 [Compound 61] | 7.693 | 5.922
CCc1c(C)[nH]c(=O)c(N(C)CC(C)C)c1Cc1cc(C)cc(C)c1 [Compound 62] | 6.604 | 5.305
CCCc1[nH]c(=O)c(N(C)C)c(Cc2cc(C)cc(C)c2)c1C [Compound 63] | 7.029 | 6.334
CCc1c(C)[nH]c(=O)c(N(C)C)c1Cc1ccccc1Cl [Compound 65] | 8.284 | 6.405
CCc1c(C)[nH]c(=O)c(N(C)C)c1Cc1nccs1 [Compound 66] | 7.588 | 5.72
CCc1c(C)[nH]c(=O)c(N(C)Cc2ccccc2)c1Cc1cc(C)cc(C)c1 [Compound 67] | 6.804 | 4.955

SMILES | HIV1 pIC50 strain IIIB (HIV-1 strain IIIB) | HIV1 pIC50 strain 103N (HIV-1 strain 103 N)
CCCCNc1c(Cc2cc(C)cc(C)c2)c(CC)c(C)[nH]c1=O [Compound 69] | 6.891 | 5.655
CCCc1c(C)[nH]c(=O)c(N(C)C)c1Cc1cc(C)cc(C)c1 [Compound 71] | 7.777 | 7.049
CCc1c(C)[nH]c(=O)c(NCC(C)C)c1Cc1cc(C)cc(C)c1 [Compound 72] | 7.079 | <4
CCc1c(C)[nH]c(=O)c(N)c1C(OC)c1cc(C)cc(C)c1 (stereo not shown) [Compound 73] | 8.027 | 6.92
CCc1c(C)[nH]c(=O)c(N)c1Cc1ccnc2ccccc12 [Compound 74] | <4 | <4
CCc1c(C)[nH]c(=O)c(N(C)C)c1Cc1ccnc2ccccc12 [Compound 75] | 5.252 | 4.132
Cc1cc(C)cc(Cc2cc(CCC(C)C)[nH]c(=O)c2N)c1 [Compound 76] | <5.494 | <4
Cc1cc(C)cc(Cc2cc(CCC(C)C)[nH]c(=O)c2N(C)C)c1 [Compound 77] | 5.827 | <4
CCc1c(C)[nH]c(=O)c(N(C)CCOC)c1Cc1cc(C)cc(C)c1 [Compound 78] | 8.678 | 7.128
CCc1c(C)[nH]c(=O)c(N(C)C(C)C)c1Cc1cc(C)cc(C)c1 [Compound 79] | 6.987 | 5.47
CCc1c(C)[nH]c(=O)c(N)c1CNCc1ccccc1 [Compound 80] | <4 | <4
CCNc1c(Cc2cc(C)cc(C)c2)c(CC)c(C)[nH]c1=O [Compound 81] | 7.866 | 6.444
CCCNc1c(Cc2cc(C)cc(C)c2)c(CC)c(C)[nH]c1=O [Compound 82] | 7.735 | 5.813
CCc1c(C)[nH]c(=O)c(N)c1CNCc1cccc(C)c1 [Compound 83] | <4.033 | <4
CCc1c(C)[nH]c(=O)c(N)c1Cc1nccn1C [Compound 84] | <4 | <4
Cc1cccc(Cc2c(C)c(C)[nH]c(=O)c2N)c1 [Compound 85] | 4.954 | <4
Cc1cccc(Cc2c(C)c(C)[nH]c(=O)c2N(C)C)c1 [Compound 86] | 7.863 | 5.936
CCc1c(C)[nH]c(=O)c(N)c1C(=O)c1cccc(C)c1 [Compound 87] | 6.46 | 5.653
